Test results as given in US20110150959A1, “WIPE WITH ODOUR CONTROL SUBSTANCE” (SCA Hygiene Products AB, priority 2008, published 2011).

Legend:
[1] = Odour reduction by lipid-treated fluff pulp, headspace SPME-GC/MS; details: pulp with 30% by weight lipid; 1000 ng/ml odour substance; 3 h + 0.5 h at 35° C.; vs untreated pulp
Procedure: Sheets of sulfate pulp from Weyerhaeuser Inc., with the designation NB416, were impregnated with a solution of the tested oil/fat in hexane. To a pulp sheet weighing 10 g was added a solution of 4.29 g oil in 4.29 g hexane. The solution was evenly distributed over the surface of the sheets. When the hexane had evaporated the sheets contained 30% by weight oil/fat and 70% by weight pulp fibers. The treated sheets were defibrated in a Braun multimixer MX32 to produce fluff pulp.
1 g of treated pulp was put in a 60 ml vial, after which 3.9 ml of 0.01 M phosphate buffered saline solution pH 7.4 from Sigma was added. Then 0.1 ml PEG300 with DMS (dimethyl sulfide), DMDS (dimethyl disulfide) and IVA (isovaleric aldehyde) was added so that the concentration of each odour substance in the final solution was 1000 ng/ml.
After 3 h at 35° C. a SPME fiber (Supelco), 75 μm Carboxen-PDMS, was injected into the headspace above the pulp and after an additional 0.5 h the SPME fiber was analyzed with gas chromatography (GC), Thermo Finnigan Trace, with a MS detector. The peak area of each odour substance was determined for samples with treated pulp and the untreated reference pulp. The GC settings were:
Temperature program for GC: 30° C. (7 min), 3° C./min-70° C. (0 min), 40° C./min-250° C. (7 min). Column: ZB-624 (Zebron), 30 m, 0.25 mm i.d. 1.40 μm film thickness Inlet temperature: 250° C. Transfer line: 220° C.
MS: SIM (single ion monitoring). When DMS, IVA and DMDS were analyzed the following mass numbers were detected: 45, 46, 47, 57, 58, 61, 62, 79, 86 and 94.
The odour reduction was determined by comparing the peak area of the tested sample with the same peak area achieved when testing the untreated reference pulp. The calculation of the odour reduction in percent was made by the equation:
Odour reduction=100×(1−Actual peak area/Peak area of sample with untreated pulp)
These ozonized lipids were tested for their odour reducing effect on treated pulp in the same manner as under Trial 1 above. The only exception in the laboratory procedure was the method for treatment of the pulp with Acolectin.

[2] = autoxidation at 100° C., fatty acids not treated with antioxidants; cited from earlier work
[3] = Odour reduction by lipid-treated spunlaced nonwoven wipes, headspace SPME-GC/MS; details: 1 g spunlaced nonwoven treated with 2 g lipid; 1000 ng/ml odour compound
Procedure: A spunlaced nonwoven with the trade name Fibrella 7160, available from Suominen (Finland) was used in these experiments. This material, which consists of about 60% polypropylene fibres and 40% rayon fibres, has a basis weight of about 50 g/m^2. Pieces with a weight of 1 g and an area of 0.020 m^2 were cut from the spunlaced nonwoven sheet. These pieces were then treated with lipids. 2 g of the lipid was dissolved in 4 g of either hexane or acetone and evenly distributed on the piece of nonwoven. Acetone was used to dissolve all ozonated oils and oleic acid while the other not ozonated oils where dissolved in hexane. After several hours, when the solvent had evaporated, the nonwoven pieces were folded and inserted into 60 ml vials, used for SPME analysis. The vials were then flushed with nitrogen gas and sealed.
Vials with a volume of 60 ml containing 1 g spunlaced nonwoven treated with 2 g lipid were used in these tests. The laboratory procedure was the same as earlier described when evaluating the odour reduction of fluffed pulp, see page 10-11. To each vial was added 3.9 ml phosphate buffered saline solution, pH 7.4 and 0.1 ml PEG300 with DMS, DMDS and IVA. The total concentration of each odour compound was 1000 ng/ml.

[4] = Peroxide value, AOCS Official Method Cd 8-53; format: physicochemical; details: Trial 2 lipids after ozonization; lipids used for treatment of wipes
Procedure: The degree of oxidation was tested by determining the peroxide value according to the test method AOCS Official Method Cd 8-53 Surplus 2003. The peroxide value for both the starting oils/fats and the ozonized oils/fats was determined.

Row | SMILES | Reduction of odour substances in %, DMDS [1] | Reduction of odour substances in %, DMS [1] | Reduction of odour substances in %, IVA [1] | Relative rate of oxidation [2] | Reduction of odour substances in %, DMDS [3] | Reduction of odour substances in %, DMS [3] | Reduction of odour substances in %, IVA [3] | Peroxide value [4]
1 | CCCCC/C=C\C/C=C\CCCCCCCC(=O)OCC [Ethyl linoleate, ethyl linoleate] | 0% | 0% | 0% | – | – | – | – | –
2 | CCCCC/C=C\C/C=C\CCCCCCCC(=O)O [Linoleic acid] | – | – | – | 64 | – | – | – | –
3 | CCCCCCCC/C=C\CCCCCCCC(=O)O [Oleic acid, oleic acid] | 19.2% | 67.5% | 9.3% | 6 | 83.6% | 67.4% | 74.5% | 3.1 meqv./kg
4 | CCCCCCCCCCCCCCCCCC(=O)O [Stearic acid] | – | – | – | 0.6 | – | – | – | –
